According to PMC3961306, “Comparison of the Cancer Gene Targeting and Biochemical Selectivities of All Targeted Kinase Inhibitors Approved for Clinical Use” (PLoS ONE, 2014):

Experiments:
Assay in all cases: Kinase profiling in a biochemical assay panel (mobility shift assays and ELISA), %-inhibition at 1 μM; selectivity entropy
[1] = target: T1, panel of more than 300 wild-type and mutant kinases (313 kinase panel) (Homo sapiens, UniProt P46734); settings: kinase MAP2K3; compound at 1 μM
T1 sequence (P46734 1-347): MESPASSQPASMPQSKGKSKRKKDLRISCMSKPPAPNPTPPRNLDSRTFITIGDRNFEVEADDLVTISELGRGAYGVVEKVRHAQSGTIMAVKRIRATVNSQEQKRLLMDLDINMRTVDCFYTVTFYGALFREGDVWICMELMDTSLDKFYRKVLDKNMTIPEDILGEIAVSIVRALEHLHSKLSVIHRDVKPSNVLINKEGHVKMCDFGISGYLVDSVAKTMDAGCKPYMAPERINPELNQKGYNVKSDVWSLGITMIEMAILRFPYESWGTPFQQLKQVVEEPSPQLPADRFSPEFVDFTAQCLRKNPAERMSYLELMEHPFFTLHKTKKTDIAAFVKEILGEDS

[2] = target: panel of more than 300 wild-type and mutant kinases (313 kinase panel) (Homo sapiens, UniProt P04629); settings: kinase TRKA; 1 μM
[3] = target: T2, panel of more than 300 wild-type and mutant kinases (313 kinase panel) (Homo sapiens, UniProt O15146); settings: kinase MUSK; 1 μM
T2 sequence (O15146 24-869): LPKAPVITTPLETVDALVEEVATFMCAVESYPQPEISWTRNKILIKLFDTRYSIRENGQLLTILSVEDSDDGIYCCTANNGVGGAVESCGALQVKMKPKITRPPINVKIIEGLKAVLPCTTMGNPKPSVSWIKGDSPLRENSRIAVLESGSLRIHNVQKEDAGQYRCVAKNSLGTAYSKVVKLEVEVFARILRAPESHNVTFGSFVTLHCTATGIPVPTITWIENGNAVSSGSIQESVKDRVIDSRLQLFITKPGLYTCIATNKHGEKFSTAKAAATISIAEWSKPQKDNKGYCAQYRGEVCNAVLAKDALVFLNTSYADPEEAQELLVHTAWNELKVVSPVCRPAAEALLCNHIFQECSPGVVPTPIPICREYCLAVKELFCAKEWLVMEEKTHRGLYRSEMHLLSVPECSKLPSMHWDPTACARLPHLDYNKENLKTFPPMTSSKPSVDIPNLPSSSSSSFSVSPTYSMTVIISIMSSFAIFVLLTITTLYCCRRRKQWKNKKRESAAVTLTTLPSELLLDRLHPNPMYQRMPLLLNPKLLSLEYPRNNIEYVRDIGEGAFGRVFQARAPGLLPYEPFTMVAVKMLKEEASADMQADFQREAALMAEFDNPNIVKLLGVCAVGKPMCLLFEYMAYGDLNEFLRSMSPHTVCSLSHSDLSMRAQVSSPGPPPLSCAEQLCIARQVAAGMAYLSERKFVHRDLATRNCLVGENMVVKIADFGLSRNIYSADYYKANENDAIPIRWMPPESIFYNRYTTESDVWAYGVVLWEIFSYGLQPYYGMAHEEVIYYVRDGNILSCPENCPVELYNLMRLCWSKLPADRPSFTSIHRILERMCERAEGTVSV

[4] = target: panel of more than 300 wild-type and mutant kinases (313 kinase panel) (Homo sapiens, UniProt Q9H2X6); settings: kinase HIPK2; compound at 1 μM
[5] = target: T3, panel of more than 300 wild-type and mutant kinases (313 kinase panel) (Homo sapiens, UniProt Q12851); settings: kinase MAP4K2; compound at 1 μM
T3 sequence (Q12851 1-820): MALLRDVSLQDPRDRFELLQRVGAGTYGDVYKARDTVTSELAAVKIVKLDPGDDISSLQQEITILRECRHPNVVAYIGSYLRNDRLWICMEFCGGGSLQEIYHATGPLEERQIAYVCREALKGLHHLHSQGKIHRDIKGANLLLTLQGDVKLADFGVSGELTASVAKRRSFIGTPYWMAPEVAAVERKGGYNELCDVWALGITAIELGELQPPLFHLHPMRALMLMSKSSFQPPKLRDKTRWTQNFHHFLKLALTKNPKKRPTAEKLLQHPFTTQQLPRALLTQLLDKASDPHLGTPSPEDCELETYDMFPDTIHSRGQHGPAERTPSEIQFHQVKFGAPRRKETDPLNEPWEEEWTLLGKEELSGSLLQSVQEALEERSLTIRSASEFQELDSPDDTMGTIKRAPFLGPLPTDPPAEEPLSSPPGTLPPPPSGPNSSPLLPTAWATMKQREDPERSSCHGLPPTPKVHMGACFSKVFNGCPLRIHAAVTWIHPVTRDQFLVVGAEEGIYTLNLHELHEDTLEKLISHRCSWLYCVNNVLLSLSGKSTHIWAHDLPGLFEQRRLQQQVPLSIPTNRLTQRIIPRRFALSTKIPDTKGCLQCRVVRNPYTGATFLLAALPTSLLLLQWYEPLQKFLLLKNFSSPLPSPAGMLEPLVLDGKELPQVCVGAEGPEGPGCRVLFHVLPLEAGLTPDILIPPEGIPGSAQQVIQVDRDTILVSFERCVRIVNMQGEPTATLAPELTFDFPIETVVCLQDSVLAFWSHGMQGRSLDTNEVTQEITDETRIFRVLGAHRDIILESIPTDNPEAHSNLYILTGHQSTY

[6] = target: panel of more than 300 wild-type and mutant kinases (313 kinase panel) (Homo sapiens, UniProt P06239); settings: kinase LCK; compound at 1 μM
Chain of panel of more than 300 wild-type and mutant kinases (313 kinase panel) (Homo sapiens, UniProt P06239) (P06239 whole entry, change not shown): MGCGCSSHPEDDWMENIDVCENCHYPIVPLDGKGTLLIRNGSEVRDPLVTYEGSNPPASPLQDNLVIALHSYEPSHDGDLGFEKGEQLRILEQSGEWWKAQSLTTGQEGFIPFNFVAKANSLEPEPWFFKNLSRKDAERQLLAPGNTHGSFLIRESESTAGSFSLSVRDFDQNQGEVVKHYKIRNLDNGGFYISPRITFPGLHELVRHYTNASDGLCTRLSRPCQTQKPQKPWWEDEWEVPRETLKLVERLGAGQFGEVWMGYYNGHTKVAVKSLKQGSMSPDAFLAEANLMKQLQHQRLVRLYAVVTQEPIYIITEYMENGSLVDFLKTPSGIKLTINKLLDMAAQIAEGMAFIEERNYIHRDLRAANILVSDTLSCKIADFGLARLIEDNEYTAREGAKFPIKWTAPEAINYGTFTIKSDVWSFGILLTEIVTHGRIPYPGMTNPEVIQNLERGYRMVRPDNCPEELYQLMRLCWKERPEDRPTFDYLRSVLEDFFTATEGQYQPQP

CO[C@H]1C[C@@H]2CC[C@@H](C)[C@@](O)(O2)C(=O)C(=O)N2CCCC[C@H]2C(=O)O[C@H]([C@H](C)C[C@@H]2CC[C@@H](OC(=O)C(C)(CO)CO)[C@H](OC)C2)CC(=O)[C@H](C)/C=C(\C)[C@@H](O)[C@@H](OC)C(=O)[C@H](C)C[C@H](C)/C=C/C=C/C=C/1C [temsirolimus]
%-inhibition of MAP2K3 [1]: 10% | %-inhibition of TRKA [2]: -3.53% | %-inhibition of MUSK [3]: -9% | %-inhibition of HIPK2 [4]: 0.538% | %-inhibition of MAP4K2 [5]: -3% | %-inhibition of LCK [6]: -2.22%

CC(=O)Nc1cccc(-n2c(=O)n(C3CC3)c(=O)c3c(Nc4ccc(I)cc4F)n(C)c(=O)c(C)c32)c1 [trametinib]
%-inhibition of MAP2K3 [1]: 3% | %-inhibition of TRKA [2]: -1.17% | %-inhibition of MUSK [3]: -0.929% | %-inhibition of HIPK2 [4]: 0.155% | %-inhibition of MAP4K2 [5]: 4% | %-inhibition of LCK [6]: -7%

CCCS(=O)(=O)Nc1ccc(F)c(C(=O)c2c[nH]c3ncc(-c4ccc(Cl)cc4)cc23)c1F [vemurafenib]
%-inhibition of MAP2K3 [1]: 34% | %-inhibition of TRKA [2]: 16% | %-inhibition of MUSK [3]: -0.285% | %-inhibition of HIPK2 [4]: -5% | %-inhibition of MAP4K2 [5]: 43% | %-inhibition of LCK [6]: 81%
